Broadly, the pIC50 is the IC50 on a negative log10 scale, so that one unit is a factor of ten. Lower therefore signals a high IC50.

The results in this text go back to PMC4992173, “Divergent synthesis and identification of the cellular targets of deoxyelephantopins” (Nature Communications, 2016).

pIC50: −log10 of the molar value.

For one data set, the target named is T1, PPARγ D174A (Homo sapiens, UniProt P37231, D174A).
T1 construct: host or cells: 293T
The experiment in a line: Gel-based competitive IC50 determination in 293T lysates: D174A PPARγ. It is filed as binding. Conditions: D174A PPARγ expressed in 293T cells, lysate, 1 h, then 10 μM 24c-Cy3. An excerpt:
Finally, we sought to understand the molecular basis for PPARγ binding by the synthetic analogues of deoxyelephantopin through identification of the precise covalently modified amino acid site. There is literature precedent for oxidized fatty acids containing an α,β-unsaturated ketone to form a covalent bond with a cysteine in the ligand-binding site of PPARγ[53]. More recently, synthetic ligands binding reversibly to a distinct site were identified. […] Bearing in mind that the structurally simplified, and thus less prone to MS/MS fragmentation, probe 23c binds PPARγ as efficiently as 24c (Supplementary Fig. 13), we treated the recombinant nuclear receptor with the former compound, digested the protein and analysed the resulting peptides by LC–MS/MS. […]
Supplementary figure 21: Top: Fluorescence gels corresponding to the IC50 curves presented in the main text Figure 8b. γ fluorescence signal in percentage after 19a treatment. […]
(§1) Biological materials. […] Protein concentration was determined using the Bradford assay (Bio-Rad).
(§2) Cell culture and preparation of lysates. […] Cells were lysed by sonication to form cell lysates and protein concentration was determined using the Bradford […]

Data set [1] relates to four different cancer cell lines (MCF7, Caco-2, HeLa, MDA-MB-231). Put plainly: Cell viability (EC50) in four different cancer cell lines, 3 days, nuclei count. It is filed as cell-based. Conditions: all four tested cell lines. The method, then:
We began our biological investigations by assaying the cytotoxicity of natural deoxyelephantopin (DEP) and its unnatural analogues in four different cancer cell lines (Fig. 5a, Supplementary Figs 6–8).
Figure 5 Assessing the cytotoxicity of deoxyelephantopin (DEP) and analogues. (a) Cell viability measurements in four different cancer cell lines. Cells were treated with compounds for 3 days, the nuclei were stained with DAPI and counted (EC50 values±s.d. shown; n=3). **P<0.005 and ***P<0.0005 by two-sided Student's t-test. (b) Detection of caspase activation and apoptosis in MCF7 cells using FITC-VAD-FMK fluorescent probe (top) or Annexin V staining (bottom). The cells were treated with 1 μM staurosporine (positive control) or 20 μM deoxyelephantopin for 8 h. Confocal microscopy images are shown. EC50, effector concentration for half-maximum response. Scale bars, 30μm. […]
as §1, §2
’ cells/mL and HeLa: 1 ’ cells/mL) in a 96-well plate and allowed to attach overnight. […] Cells were imaged using a SpectraMax i3 plate reader equipped with a SpectraMax MiniMax imaging cytometer (Molecular Devices). […]
Caspase activity labeling for fluorescence cell imaging. […]

T1 sequence (P37231 whole entry D174A): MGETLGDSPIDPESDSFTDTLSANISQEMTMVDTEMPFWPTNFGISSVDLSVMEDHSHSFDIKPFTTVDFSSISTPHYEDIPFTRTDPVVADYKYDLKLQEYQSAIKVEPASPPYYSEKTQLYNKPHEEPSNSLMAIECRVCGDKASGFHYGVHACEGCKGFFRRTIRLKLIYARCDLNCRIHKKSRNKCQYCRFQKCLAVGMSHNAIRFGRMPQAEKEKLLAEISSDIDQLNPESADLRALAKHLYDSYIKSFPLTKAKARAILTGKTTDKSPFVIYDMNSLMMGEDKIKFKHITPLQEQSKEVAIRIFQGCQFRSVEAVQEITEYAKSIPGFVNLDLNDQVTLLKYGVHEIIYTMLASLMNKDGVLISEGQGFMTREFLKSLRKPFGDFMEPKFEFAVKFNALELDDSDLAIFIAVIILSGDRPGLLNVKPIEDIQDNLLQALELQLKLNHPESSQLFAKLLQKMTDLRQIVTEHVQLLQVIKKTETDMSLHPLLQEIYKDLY

The compound `C=C(C)C(=O)O[C@H]1CC2=C[C@H](C/C=C\[C@H]3OC(=O)C(=C)[C@H]13)OC2=O` [19a] gave a pIC50 on PPARγ D174A of 4.24.
For the compound `C#CCC[C@H](OC(=O)C(=C)C)[C@H]1C(=C)C(=O)O[C@@H]1c1ccccc1` [24c], the “cytotoxicity rank among alkyne-tagged analogues 24” value in data set [1] is “highest cytotoxicity”.
